Values of other authors as cited in patent US20130023494A1, “MODULATORS OF THE GPR119 RECEPTOR AND THE TREATMENT OF DISORDERS RELATED THERETO” (ARENA PHARMACEUTICALS, INC., priority 2010, published 2013).

Columns and labels:
GPR119 = settings: combined administration with a DPP-IV inhibitor, compared with either agent alone; cited from earlier work
[1] = test system: human patients suffering with type 2 diabetes; settings: oral administration, human patients with type 2 diabetes; cited from earlier work
humans = settings: cited from earlier work

CC(C)c1noc(C2CCN(c3ncnc(Nc4ccc(S(C)(=O)=O)cc4F)c3[N+](=O)[O-])CC2)n1 [Compound B111, (2-Fluoro-4-methanesulfonyl-phenyl)-{6-[4-(3-isopropyl-[1,2,4]oxadiazol-5-yl)-piperidin-1-yl]-5-nitro-pyrimidin-4-yl}-amine]
glucose tolerance (GPR119): improved glucose tolerance to a significantly greater degree than either agent alone
plasma GLP-1 levels (GPR119): acutely increased plasma GLP-1 levels

N[C@@H](CC(=O)N1CCn2c(nnc2C(F)(F)F)C1)Cc1cc(F)c(F)cc1F [sitagliptin, 3(R)-amino-1-[3-(trifluoromethyl)-5,6,7,8-tetrahydro[1,2,4]triazolo[4,3-a]pyrazin-7-yl]-4-(2,4,5-trifluorophenyl)butan-1-one]
fasting glucose, postprandial glucose excursion and HbA1c levels [1]: reduce fasting glucose and postprandial glucose excursion in association with significantly reduced HbA1c levels

N#C[C@@H]1CCCN1C(=O)CNC12CC3CC(CC(O)(C3)C1)C2 [vildagliptin, 1-[2-(3-hydroxyadamant-1-ylamino)acetyl]pyrrolidine-2(S)-carbonitrile]
fasting glucose, postprandial glucose excursion and HbA1c levels [1]: reduce fasting glucose and postprandial glucose excursion in association with significantly reduced HbA1c levels

PYY3-36: generated from PYY1-36 by cleavage of the N-terminal Tyr and Pro residues by dipeptidyl peptidase IV; Y2R selective agonist
reduction of food intake (humans; human studies, infusion, over 24 hours): 33%
time of decline to basal levels (humans; human, after infusion): ≤ 30 min
time to peak serum levels of PYY3-36 (humans; human, infusion to reach normal postprandial circulatory concentrations): ≤ 15 min
